From US11352408B2, “Antitumor peptide having PD-1 signal sequence and utilization thereof” (TOAGOSEI CO.,LTD., priority 2017, dated 2022)
Read-outs that look alike come from different tables or passages of the source. Where a SMILES comes first, the peptide text is derived from it.

Legend:
[1] = test system: human non small cell lung cancer cell line (HCC827); test: Antitumor activity evaluation, cell viability by Cell Counting Kit-8 (WST-8); format: cell-based
Procedure: (§1) The cell viability (%) was determined as indicated hereinbelow.

[2] = test system: human non small cell lung cancer cell line (NCI-H2444); test: as above; format: cell-based
Procedure: as §1

[3] = test system: tumor cells tested in the present Test Example; test: Evaluation test on antitumor activities of synthetic peptides, overall finding; format: cell-based, human; conditions: compared to comparative samples 3 to 5
Procedure: as §1

[4] = test system: human alveolar basal epithelial adenocarcinoma cell line (A549); conditions: 48 hours, relative to medium without peptide = 100%
Procedure: (§2) Some of the sample peptides synthesized in Test Example 1 were evaluated for antitumor activity on several types of cultured tumor cells.
(§3) Specifically, test tumor cells used were currently commercially available human non small cell lung cancer cell line (NCI-H2444), human non small cell lung cancer cell line (HCC827), human alveolar basal epithelial adenocarcinoma cell line (A549), human small cell lung cancer cell line (NCI-H446), human melanoma cell line (A2058) and human breast adenocarcinoma cell line (MDA-MB-231). As a comparison, a commercially available cultured normal human mammary epithelial cell line (MCF-12F) was used.
The above six cell lines were cultured in each of the media indicated above and the number of cells was adjusted to be approximately 5×10^3 per well in a 96-well plate. The amount of the medium was 100 μL per well. […]
Thereafter, peptide-containing test media were respectively prepared for each concentration so that the concentration of any of the sample peptides to be evaluated was either 12.5 μM or 25 μM, and were supplied to wells (namely, wells after pre-incubation above) in which cells to be evaluated were cultured at 90 μL per well. […]
The number (n) of test wells per each peptide concentration in the test section to which peptides were added was 3. […] The cell viability (%) was determined as indicated hereinbelow. […]

[5] = test system: human breast adenocarcinoma cell line (MDA-MB-231); format: cell-based; conditions: 48 h
Procedure: as §2, §3
(§4) (2) human melanoma cell line (A2058) and human breast adenocarcinoma cell line (MDA-MB-231):
(§5) DMEM medium (product from Wako Pure Chemical Industries, Ltd.) containing 2 mM L-glutamine, 0.1 mM non-essential amino acids, 50 units/mL penicillin, 50 μg/mL streptomycin and 10% FBS; and
(§6) The above six cell lines were cultured in each of the media indicated above and the number of cells was adjusted to be approximately 5×10^3 per well in a 96-well plate. The amount of the medium was 100 μL per well.
(§7) The 96-well plate was placed in a CO2 incubator and pre-incubated under conditions of 37° C. and 5% CO2 for approximately one day (21 hours to 24 hours).
(§8) Thereafter, peptide-containing test media were respectively prepared for each concentration so that the concentration of any of the sample peptides to be evaluated was either 12.5 μM or 25 μM, and were supplied to wells (namely, wells after pre-incubation above) in which cells to be evaluated were cultured at 90 μL per well. The 96-well plate was placed back in the CO2 incubator and incubated under conditions of 37° C. and 5% CO2 for 48 hours.
(§9) The number (n) of test wells per each peptide concentration in the test section to which peptides were added was 3. Therefore, the values indicated in the result section in the table hereinbelow are averages of results obtained from 3 test wells. The cell viability (%) was determined as indicated hereinbelow.
(§10) After a 48-hour incubation, the medium in the wells was replaced by 100 μL fresh medium without peptide, and 10 μL of a reagent for cell proliferation measurement “Cell Counting Kit-8” (product from Dojindo Laboratories) containing “water-soluble tetrazolium salt (WST-8)” as a chromogenic reagent was added to each well. The 96-well plate was then placed back in the CO2 incubator and incubated under conditions of 37° C. and 5% CO2 for 1.5 hours to 2 hours.
(§11) After completion of the incubation, the cell culture medium to which the reagent was added was recovered and the cell viability (%) was evaluated by a colorimetric method in which the absorbance at a wavelength of 450 nm (the value corrected with the absorbance at a wavelength 650 nm: A450-A650) due to reduction of the tetrazolium salt was measured. Specifically, the cell viability (%) of each test cell line was calculated from the measured absorbance as a relative value to the measured value (measured absorbance) in the comparative test section in which the incubation over 48 hours as above was carried out only with a medium without peptide, that was regarded as 100% of the cell viability.

[6] = test system: human melanoma cell line (A2058); format: cell-based; conditions: 48 h
Procedure: as §2, §3, §4, §5, §6, §7, §8, §9, §10, §11

[7] = in vitro; format: cell-based; conditions: human
Procedure: (3) cultured normal human mammary epithelial cell line (MCF-12F):
DMEM/F12 medium (product from Wako Pure Chemical Industries, Ltd.) containing 20 ng/mL recombinant EGF, 10 μg/mL insulin, 0.5 μg/mL hydrocortisone and 10% FBS.
as §1

[8] = test system: human small cell lung cancer cell line (NCI-H446); format: cell-based; conditions: 48 h
Procedure: as §1

Row | SMILES | Cell viability (%) ([1]; HCC827, test peptide concentration 12.5 μM, 48 hours, relative to medium without peptide = 100%) | Cell viability (%) ([1]; HCC827, test peptide concentration 25.0 μM, 48 hours, relative to medium without peptide = 100%) | Cell viability (%) ([2]; NCI-H2444, test peptide concentration 12.5 μM, 48 hours, relative to medium without peptide = 100%) | Cell viability (%) ([2]; NCI-H2444, test peptide concentration 25.0 μM, 48 hours, relative to medium without peptide = 100%) | antitumor activity (inhibitory activity of proliferation of tumor cells) [3] | Cell viability (%) ([4]; test peptide concentration 12.5 μM) | Cell viability (%) ([4]; test peptide concentration 25.0 μM) | Cell viability (%) ([5]; 12.5 µM) | Cell viability (%) ([5]; 25 µM) | Cell viability (%) ([6]; 12.5 µM) | Cell viability (%) ([6]; 25 µM) | viability at 48 h, 12.5 µM [7] [%] | viability at 48 h, 25 µM [7] [%] | Cell viability (%) ([1]; human, 48 h, 12.5 µM) | Cell viability (%) ([1]; human, 48 h, 25 µM) | Cell viability (%) ([2]; human, 48 h, 12.5 µM) | Cell viability (%) ([2]; human, 48 h, 25 µM) | Cell viability (%) ([8]; 12.5 µM) | Cell viability (%) ([8]; 25 µM)
1 | CC[C@H](C)[C@H](NC(=O)[C@H](CCC(N)=O)NC(=O)[C@@H](N)CCSC)C(=O)N1CCC[C@H]1C(=O)N[C@@H](CCC(N)=O)C(=O)N[C@@H](C)C(=O)N1CCC[C@H]1C(=O)N[C@@H](Cc1c[nH]c2ccccc12)C(=O)N1CCC[C@H]1C(=O)N[C@H](C(=O)N[C@H](C(=O)N[C@@H](Cc1c[nH]c2ccccc12)C(=O)N[C@@H](C)C(=O)N[C@H](C(=O)N[C@@H](CC(C)C)C(=O)N[C@@H](CCC(N)=O)C(=O)N[C@@H](CC(C)C)C(=O)NCC(=O)N[C@@H](Cc1c[nH]c2ccccc12)C(=O)N[C@@H](CCCNC(=N)N)C(=O)N[C@@H](CCCNC(=N)N)C(=O)N[C@@H](CCCCN)C(=O)N[C@@H](CCCCN)C(=O)N[C@@H](CCCNC(=N)N)C(=O)N[C@@H](CCCNC(=N)N)C(=O)N[C@@H](CCC(N)=O)C(=O)N[C@@H](CCCNC(=N)N)C(=O)N[C@@H](CCCNC(=N)N)C(=O)N[C@@H](CCCNC(=N)N)C(N)=O)C(C)C)C(C)C)C(C)C [Sample 2] (H-MQIPQAPWPVVWAVLQLGWRRKKRRQRRR-NH2; N-terminus assumed) | 62.9 | 4.9 | 50.4 | 3.6 | excellent antitumor activity | 52.4 | 9.1 |  |  |  |  |  |  |  |  |  |  |  | 
2 | CC[C@H](C)[C@H](NC(=O)[C@H](CCCNC(=N)N)NC(=O)[C@@H](N)CCSC)C(=O)N[C@@H](Cc1ccccc1)C(=O)N[C@@H](C)C(=O)N[C@H](C(=O)N[C@@H](Cc1ccccc1)C(=O)N[C@H](C(=O)N[C@@H](Cc1ccccc1)C(=O)N[C@@H](CCSC)C(=O)N[C@H](C(=O)N[C@@H](Cc1ccc(O)cc1)C(=O)N[C@@H](Cc1c[nH]c2ccccc12)C(=O)N[C@@H](Cc1c[nH]cn1)C(=O)N[C@@H](CC(C)C)C(=O)N[C@@H](CC(C)C)C(=O)N[C@@H](CC(N)=O)C(=O)N[C@@H](C)C(=O)N[C@@H](CCCCN)C(=O)N[C@@H](CCCCN)C(=O)N[C@@H](CCCNC(=N)N)C(=O)N[C@H](C(=O)N[C@@H](CC(C)C)C(=O)N[C@@H](CCCNC(=N)N)C(=O)N[C@@H](CCCCN)C(=O)N[C@@H](CC(N)=O)C(=O)N[C@@H](CC(=O)O)C(=O)N[C@@H](CCCNC(=N)N)C(=O)N[C@@H](CCCCN)C(=O)N[C@@H](CCCCN)C(=O)N[C@@H](CCCNC(=N)N)C(N)=O)[C@@H](C)O)[C@@H](C)O)[C@@H](C)CC)C(C)C [Sample 3, reference compound] (H-MRIFAVFIFMTYWHLLNAKKRTLRKNDRKKR-NH2; N-terminus assumed) |  |  |  |  |  |  |  | 89.3 | 83.7 | 100.9 | 87.5 | 87.3 | 81.7 | 105.4 | 120.6 | 106.3 | 87.7 | 67.9 | 56.7
3 | CC[C@H](C)[C@H](NC(=O)[C@H](CCC(N)=O)NC(=O)[C@@H](N)CCSC)C(=O)N1CCC[C@H]1C(=O)N[C@@H](CCC(N)=O)C(=O)N[C@@H](C)C(=O)N1CCC[C@H]1C(=O)N[C@@H](Cc1c[nH]c2ccccc12)C(=O)N1CCC[C@H]1C(=O)N[C@H](C(=O)N[C@H](C(=O)N[C@@H](Cc1c[nH]c2ccccc12)C(=O)N[C@@H](C)C(=O)N[C@H](C(=O)N[C@@H](CC(C)C)C(=O)N[C@@H](CCC(N)=O)C(=O)N[C@@H](CC(C)C)C(=O)NCC(=O)N[C@@H](Cc1c[nH]c2ccccc12)C(=O)N[C@@H](CCCNC(=N)N)C(=O)N[C@@H](CCCCN)C(=O)N[C@@H](CCCCN)C(=O)N[C@@H](CCCNC(=N)N)C(=O)N[C@H](C(=O)N[C@@H](CC(C)C)C(=O)N[C@@H](CCCNC(=N)N)C(=O)N[C@@H](CCCCN)C(=O)N[C@@H](CC(N)=O)C(=O)N[C@@H](CC(=O)O)C(=O)N[C@@H](CCCNC(=N)N)C(=O)N[C@@H](CCCCN)C(=O)N[C@@H](CCCCN)C(=O)N[C@@H](CCCNC(=N)N)C(N)=O)[C@@H](C)O)C(C)C)C(C)C)C(C)C [Sample 1] (H-MQIPQAPWPVVWAVLQLGWRKKRTLRKNDRKKR-NH2; N-terminus assumed) |  |  |  |  | excellent antitumor activity |  |  | 63.1 | 9.9 | 50.4 | 6.7 | 97.4 | 62.3 | 49.8 | 11.8 | 59.6 | 6.8 | 2.5 | 0.5
4 | CC(C)C[C@H](NC(=O)[C@@H](NC(=O)[C@H](CCCNC(=N)N)NC(=O)[C@H](CCCCN)NC(=O)[C@@H](N)CCCCN)[C@@H](C)O)C(=O)N[C@@H](CCCNC(=N)N)C(=O)N[C@@H](CCCCN)C(=O)N[C@@H](CC(N)=O)C(=O)N[C@@H](CC(=O)O)C(=O)N[C@@H](CCCNC(=N)N)C(=O)N[C@@H](CCCCN)C(=O)N[C@@H](CCCCN)C(=O)N[C@@H](CCCNC(=N)N)C(N)=O [Sample 5, KKRTLRKNDRKKR-CONH2] (H-KKRTLRKNDRKKR-NH2; N-terminus assumed) |  |  |  |  |  |  |  |  |  |  |  |  |  | 106.7 | 106.5 |  |  |  | 
5 | CC[C@H](C)[C@H](NC(=O)[C@H](CC(C)C)NC(=O)[C@H](CC(C)C)NC(=O)[C@H](CCSC)NC(=O)[C@H](CCC(N)=O)NC(=O)[C@H](CCC(N)=O)NC(=O)[C@H](CCC(N)=O)NC(=O)[C@@H](NC(=O)[C@@H](NC(=O)[C@@H](NC(=O)[C@@H]1CCCN1C(=O)[C@@H]1CCCN1C(=O)[C@H](Cc1c[nH]c2ccccc12)NC(=O)[C@H](Cc1c[nH]c2ccccc12)NC(=O)[C@H](Cc1c[nH]c2ccccc12)NC(=O)[C@@H]1CCCN1)C(C)C)C(C)C)C(C)C)C(=O)NCC(=O)N[C@@H](C)C(=O)N[C@@H](C)C(=O)N[C@@H](CCCNC(=N)N)C(=O)N[C@@H](CCCCN)C(=O)N[C@@H](CCCCN)C(=O)N[C@@H](CCCNC(=N)N)C(=O)N[C@H](C(=O)N[C@@H](CC(C)C)C(=O)N[C@@H](CCCNC(=N)N)C(=O)N[C@@H](CCCCN)C(=O)N[C@@H](CC(N)=O)C(=O)N[C@@H](CC(=O)O)C(=O)N[C@@H](CCCNC(=N)N)C(=O)N[C@@H](CCCCN)C(=O)N[C@@H](CCCCN)C(=O)N[C@@H](CCCNC(=N)N)C(N)=O)[C@@H](C)O [Sample 4] (H-PWWWPPVVVQQQMLLIGAARKKRTLRKNDRKKR-NH2; N-terminus assumed) |  |  |  |  |  |  |  |  |  |  |  |  |  | 110.9 | 102.6 |  |  |  | 
